# Assay results taken from patent US6355799B1, “Substituted benzene compounds, process for their preparation, and herbicidal and defoliant compositions containing them” (ISK Americas Incorporated, priority 1997, dated 2002).
# Key:
# Type in all cases: in vivo
# [1] = test system: redroot pigweed (Amaranthus retroflexus, AMARE); assay: Pre-emerge test, greenhouse herbicide activity screening; conditions: pre-emerge; for Pre-emerge Herbicidal Activity AMARE: phytotoxicity rating 0-100 at 14 days after application; for phytotoxicity rating AMARE: 14 days after application, scale 0-100
# Summary of the method: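 Compounds in acetone were track-sprayed at 187 l/ha, 15–1000 g ai/ha, onto sandy loam pots. Pre-emerge seeds were sown one day before spraying, with surface watering afterwards. Post-emerge plants were at the 2–3 leaf stage and sprayed with 0.25% v/v non-ionic surfactant. Injury was rated 0–100 at 14 days.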
# [2] = test system: barnyardgrass (Echinochloa crus-galli, ECHCG); assay: as above; conditions: pre-emerge; for Pre-emerge Herbicidal Activity ECHCG: phytotoxicity rating 0-100 at 14 days after application; for phytotoxicity rating ECHCG: 14 days after application, scale 0-100
# Summary of the method: (§1)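 Compounds in acetone were track-sprayed at 15-1000 g ai/ha (187 l/ha) on sandy loam pots: pre-emerge one day after seeding, post-emerge at 2-3 leaf stage with 0.25% v/v non-ionic surfactant. Phytotoxicity was rated 14 days later on a 0 (no damage) to 100 (complete death) scale.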
# [3] = test system: green foxtail (Setaria viridis, SETVI); assay: as above; conditions: pre-emerge; for Pre-emerge Herbicidal Activity SETVI: phytotoxicity rating 0-100 at 14 days after application; for phytotoxicity rating SETVI: 14 days after application, scale 0-100
# Summary of the method: as §1
# [4] = test system: ivyleaf morningglory (Ipomoea hederacea, IPOHE); assay: as above; conditions: pre-emerge; for Pre-emerge Herbicidal Activity IPOHE: phytotoxicity rating 0-100 at 14 days after application; for phytotoxicity rating IPOHE: 14 days after application, scale 0-100
# Summary of the method: as §1
# [5] = test system: johnsongrass (Sorghum halepense, SORHA); assay: as above; conditions: pre-emerge; for Pre-emerge Herbicidal Activity SORHA: phytotoxicity rating 0-100 at 14 days after application; for phytotoxicity rating SORHA: 14 days after application, scale 0-100
# Summary of the method: as §1
# [6] = test system: lambsquarters (Chenopodium album, CHEAL); assay: as above; conditions: pre-emerge; for Pre-emerge Herbicidal Activity CHEAL: phytotoxicity rating 0-100 at 14 days after application; for phytotoxicity rating CHEAL: 14 days after application, scale 0-100
# Summary of the method: as §1
# [7] = test system: large crabgrass (Digitaria sanguinalis, DIGSA); assay: as above; conditions: pre-emerge; for Pre-emerge Herbicidal Activity DIGSA: phytotoxicity rating 0-100 at 14 days after application; for phytotoxicity rating DIGSA: 14 days after application, scale 0-100
# Summary of the method: as §1
# [8] = test system: sicklepod (Cassia obtusifolia, CASOB); assay: as above; conditions: pre-emerge; for Pre-emerge Herbicidal Activity CASOB: phytotoxicity rating 0-100 at 14 days after application; for phytotoxicity rating CASOB: 14 days after application, scale 0-100
# Summary of the method: as §1
# [9] = test system: velvetleaf (Abutilon theophrasti, ABUTH); assay: as above; conditions: pre-emerge; for Pre-emerge Herbicidal Activity ABUTH: phytotoxicity rating 0-100 at 14 days after application; for phytotoxicity rating ABUTH: 14 days after application, scale 0-100
# Summary of the method: as §1
# [10] = test system: field corn (Zea mays L., var. Dekalb 535, CORN); assay: Pre-emerge test, crop safety; conditions: pre-emerge; for Pre-emerge Herbicidal Activity CORN: crop damage, phytotoxicity rating 0-100 at 14 days after application; for phytotoxicity rating CORN (crop damage): 14 days after application, scale 0-100
# Summary of the method: (§2)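 Visual ratings on a 0-100 scale (0 no damage, 100 all plants dead) were taken at 14 days after treatment. Rates of 15-1000 g ai/ha in acetone, 187 l/ha, were sprayed onto soil one day after planting (pre-emerge) or onto 2-3 leaf plants with 0.25% v/v surfactant (post-emerge).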
# [11] = test system: upland rice (Oryza sp., var. Tebonnet, RICE); assay: Pre-emerge test, crop safety; conditions: pre-emerge; for Pre-emerge Herbicidal Activity RICE: crop damage, phytotoxicity rating 0-100 at 14 days after application; for phytotoxicity rating RICE (crop damage): 14 days after application, scale 0-100
# Summary of the method: as §2
# [12] = test system: barnyardgrass (Echinochloa crus-galli, ECHCG); assay: Post-emerge test, greenhouse herbicide activity screening; conditions: post-emerge; for Post-emerge Herbicidal Activity ECHCG: phytotoxicity rating 0-100 at 14 days after application; for ECHCG phytotoxicity rating: 14 days after application, rating scale 0-100
# Summary of the method: (§3)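 Applied at 15–1000 g ai/ha from acetone in 187 l/ha spray volume. Post-emergence applications included 0.25% v/v non-ionic surfactant and reached plants sown 8–21 days before. Pre-emergence applications were incorporated by surface watering. Efficacy or crop damage was rated on a 0–100 scale after 14 days.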
# [13] = test system: green foxtail (Setaria viridis, SETVI); assay: as above; conditions: post-emerge; for Post-emerge Herbicidal Activity SETVI: phytotoxicity rating 0-100 at 14 days after application; for SETVI phytotoxicity rating: 14 days after application, rating scale 0-100
# Summary of the method: as §3
# [14] = test system: ivyleaf morningglory (Ipomoea hederacea, IPOHE); assay: as above; conditions: post-emerge; for Post-emerge Herbicidal Activity IPOHE: phytotoxicity rating 0-100 at 14 days after application; for IPOHE phytotoxicity rating: 14 days after application, rating scale 0-100
# Summary of the method: as §3
# [15] = test system: johnsongrass (Sorghum halepense, SORHA); assay: as above; conditions: post-emerge; for Post-emerge Herbicidal Activity SORHA: phytotoxicity rating 0-100 at 14 days after application; for SORHA phytotoxicity rating: 14 days after application, rating scale 0-100
# Summary of the method: as §3
# [16] = test system: lambsquarters (Chenopodium album, CHEAL); assay: as above; conditions: post-emerge; for Post-emerge Herbicidal Activity CHEAL: phytotoxicity rating 0-100 at 14 days after application; for CHEAL phytotoxicity rating: 14 days after application, rating scale 0-100
# Summary of the method: as §3
# [17] = test system: large crabgrass (Digitaria sanguinalis, DIGSA); assay: as above; conditions: post-emerge; for Post-emerge Herbicidal Activity DIGSA: phytotoxicity rating 0-100 at 14 days after application; for DIGSA phytotoxicity rating: 14 days after application, rating scale 0-100
# Summary of the method: as §3
# [18] = test system: redroot pigweed (Amaranthus retroflexus, AMARE); assay: as above; conditions: post-emerge; for Post-emerge Herbicidal Activity AMARE: phytotoxicity rating 0-100 at 14 days after application; for AMARE phytotoxicity rating: 14 days after application, rating scale 0-100
# Summary of the method: as §3
# [19] = test system: sicklepod (Cassia obtusifolia, CASOB); assay: as above; conditions: post-emerge; for Post-emerge Herbicidal Activity CASOB: phytotoxicity rating 0-100 at 14 days after application; for CASOB phytotoxicity rating: 14 days after application, rating scale 0-100
# Summary of the method: as §3
# [20] = test system: velvetleaf (Abutilon theophrasti, ABUTH); assay: as above; conditions: post-emerge; for Post-emerge Herbicidal Activity ABUTH: phytotoxicity rating 0-100 at 14 days after application; for ABUTH phytotoxicity rating: 14 days after application, rating scale 0-100
# Summary of the method: as §3
# [21] = test system: field corn (Zea mays L., var. Dekalb 535, CORN); assay: Post-emerge test, crop safety; conditions: post-emerge; for Post-emerge Herbicidal Activity CORN: crop damage rating 0-100 at 14 days after application; for CORN phytotoxicity rating (crop damage): 14 days after application, rating scale 0-100
# Summary of the method: as §1
# [22] = test system: upland rice (Oryza sp., var. Tebonnet, RICE); assay: Post-emerge test, crop safety; conditions: post-emerge; for Post-emerge Herbicidal Activity RICE: crop damage rating 0-100 at 14 days after application; for RICE phytotoxicity rating (crop damage): 14 days after application, rating scale 0-100
# Summary of the method: as §1
smiles,measurement,setting,value
Cc1ccc(COC(=O)Nc2c(C)c(Cl)cc(F)c2-n2c(=O)cc(C(F)(F)F)n(C)c2=O)cc1 [4-60],Pre-emerge Herbicidal Activity AMARE,[1]; rate 63 g ai/ha,100
same,Pre-emerge Herbicidal Activity AMARE,[1]; rate 250 g ai/ha,100
same,Pre-emerge Herbicidal Activity ECHCG,[2]; rate 63 g ai/ha,40
same,Pre-emerge Herbicidal Activity ECHCG,[2]; rate 250 g ai/ha,70
same,Pre-emerge Herbicidal Activity SETVI,[3]; rate 63 g ai/ha,90
same,Pre-emerge Herbicidal Activity SETVI,[3]; rate 250 g ai/ha,100
same,Pre-emerge Herbicidal Activity IPOHE,[4]; rate 63 g ai/ha,50
same,Pre-emerge Herbicidal Activity IPOHE,[4]; rate 250 g ai/ha,100
same,Pre-emerge Herbicidal Activity SORHA,[5]; rate 63 g ai/ha,30
same,Pre-emerge Herbicidal Activity SORHA,[5]; rate 250 g ai/ha,50
same,Pre-emerge Herbicidal Activity CHEAL,[6]; rate 63 g ai/ha,100
same,Pre-emerge Herbicidal Activity CHEAL,[6]; rate 250 g ai/ha,100
same,Pre-emerge Herbicidal Activity DIGSA,[7]; rate 63 g ai/ha,100
same,Pre-emerge Herbicidal Activity DIGSA,[7]; rate 250 g ai/ha,100
same,Pre-emerge Herbicidal Activity CASOB,[8]; rate 63 g ai/ha,90
same,Pre-emerge Herbicidal Activity CASOB,[8]; rate 250 g ai/ha,100
same,Pre-emerge Herbicidal Activity ABUTH,[9]; rate 63 g ai/ha,100
same,Pre-emerge Herbicidal Activity ABUTH,[9]; rate 250 g ai/ha,100
same,Pre-emerge Herbicidal Activity CORN,[10]; rate 63 g ai/ha,0
same,Pre-emerge Herbicidal Activity CORN,[10]; rate 250 g ai/ha,30
same,Pre-emerge Herbicidal Activity RICE,[11]; rate 63 g ai/ha,60
same,Pre-emerge Herbicidal Activity RICE,[11]; rate 250 g ai/ha,70
same,Post-emerge Herbicidal Activity ECHCG,[12]; 63 g ai/ha,60
same,Post-emerge Herbicidal Activity ECHCG,[12]; 250 g ai/ha,50
same,Post-emerge Herbicidal Activity SETVI,[13]; 63 g ai/ha,65
same,Post-emerge Herbicidal Activity SETVI,[13]; 250 g ai/ha,90
same,Post-emerge Herbicidal Activity IPOHE,[14]; 63 g ai/ha,100
same,Post-emerge Herbicidal Activity IPOHE,[14]; 250 g ai/ha,100
same,Post-emerge Herbicidal Activity SORHA,[15]; 63 g ai/ha,50
same,Post-emerge Herbicidal Activity SORHA,[15]; 250 g ai/ha,50
same,Post-emerge Herbicidal Activity CHEAL,[16]; 63 g ai/ha,100
same,Post-emerge Herbicidal Activity CHEAL,[16]; 250 g ai/ha,100
same,Post-emerge Herbicidal Activity DIGSA,[17]; 63 g ai/ha,40
same,Post-emerge Herbicidal Activity DIGSA,[17]; 250 g ai/ha,60
same,Post-emerge Herbicidal Activity AMARE,[18]; 63 g ai/ha,100
same,Post-emerge Herbicidal Activity AMARE,[18]; 250 g ai/ha,100
same,Post-emerge Herbicidal Activity CASOB,[19]; 63 g ai/ha,60
same,Post-emerge Herbicidal Activity CASOB,[19]; 250 g ai/ha,100
same,Post-emerge Herbicidal Activity ABUTH,[20]; 63 g ai/ha,100
same,Post-emerge Herbicidal Activity ABUTH,[20]; 250 g ai/ha,100
same,Post-emerge Herbicidal Activity CORN,[21]; 63 g ai/ha,25
same,Post-emerge Herbicidal Activity CORN,[21]; 250 g ai/ha,55
same,Post-emerge Herbicidal Activity RICE,[22]; 63 g ai/ha,50
same,Post-emerge Herbicidal Activity RICE,[22]; 250 g ai/ha,70
COc1c(Cl)cc(F)c(-n2c(=O)cc(C(F)(F)F)n(C)c2=O)c1NC(=O)c1c(C)cccc1C [2-124],phytotoxicity rating AMARE,[1]; 63 g ai/ha,40
same,phytotoxicity rating AMARE,[1]; 250 g ai/ha,100
same,phytotoxicity rating ECHCG,[2]; 63 g ai/ha,0
same,phytotoxicity rating ECHCG,[2]; 250 g ai/ha,0
same,phytotoxicity rating SETVI,[3]; 63 g ai/ha,0
same,phytotoxicity rating SETVI,[3]; 250 g ai/ha,10
same,phytotoxicity rating IPOHE,[4]; 63 g ai/ha,0
same,phytotoxicity rating IPOHE,[4]; 250 g ai/ha,20
same,phytotoxicity rating SORHA,[5]; 63 g ai/ha,0
same,phytotoxicity rating SORHA,[5]; 250 g ai/ha,0
same,phytotoxicity rating CHEAL,[6]; 63 g ai/ha,20
same,phytotoxicity rating CHEAL,[6]; 250 g ai/ha,80
same,phytotoxicity rating DIGSA,[7]; 63 g ai/ha,0
same,phytotoxicity rating DIGSA,[7]; 250 g ai/ha,0
same,phytotoxicity rating CASOB,[8]; 63 g ai/ha,0
same,phytotoxicity rating CASOB,[8]; 250 g ai/ha,20
same,phytotoxicity rating ABUTH,[9]; 63 g ai/ha,0
same,phytotoxicity rating ABUTH,[9]; 250 g ai/ha,80
same,phytotoxicity rating CORN (crop damage),[10]; 63 g ai/ha,0
same,phytotoxicity rating CORN (crop damage),[10]; 250 g ai/ha,0
same,phytotoxicity rating RICE (crop damage),[11]; 63 g ai/ha,0
same,phytotoxicity rating RICE (crop damage),[11]; 250 g ai/ha,10
same,ECHCG phytotoxicity rating,[12]; 63 g ai/ha,0
same,ECHCG phytotoxicity rating,[12]; 250 g ai/ha,0
same,SETVI phytotoxicity rating,[13]; 63 g ai/ha,0
same,SETVI phytotoxicity rating,[13]; 250 g ai/ha,0
same,IPOHE phytotoxicity rating,[14]; 63 g ai/ha,20
same,IPOHE phytotoxicity rating,[14]; 250 g ai/ha,30
same,SORHA phytotoxicity rating,[15]; 63 g ai/ha,0
same,SORHA phytotoxicity rating,[15]; 250 g ai/ha,0
same,CHEAL phytotoxicity rating,[16]; 63 g ai/ha,30
same,CHEAL phytotoxicity rating,[16]; 250 g ai/ha,50
same,DIGSA phytotoxicity rating,[17]; 63 g ai/ha,0
same,DIGSA phytotoxicity rating,[17]; 250 g ai/ha,0
same,AMARE phytotoxicity rating,[18]; 63 g ai/ha,30
same,AMARE phytotoxicity rating,[18]; 250 g ai/ha,90
same,CASOB phytotoxicity rating,[19]; 63 g ai/ha,0
same,CASOB phytotoxicity rating,[19]; 250 g ai/ha,20
same,ABUTH phytotoxicity rating,[20]; 63 g ai/ha,40
same,ABUTH phytotoxicity rating,[20]; 250 g ai/ha,95
same,CORN phytotoxicity rating (crop damage),[21]; 63 g ai/ha,0
same,CORN phytotoxicity rating (crop damage),[21]; 250 g ai/ha,5
same,RICE phytotoxicity rating (crop damage),[22]; 63 g ai/ha,0
same,RICE phytotoxicity rating (crop damage),[22]; 250 g ai/ha,0
